Measured values published in PubChem BioAssay (NCI).
Several values for one entry are separate records, joined by “and”; a condition that tells them apart may be missing. Identical values can stand only once.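 Test compounds were applied to cells in 96-well plates for 48 hours at 5 doses. GI50 marks 50% less growth. TGI: total growth inhibition.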

Key:
Assay in all cases: DTP human tumour cell line panel, 48 h
[1] = tested on: HL-60(TB) leukemia
[2] = tested on: KM12 colon
[3] = tested on: MOLT-4 leukemia
[4] = tested on: OVCAR-4 ovarian
[5] = tested on: OVCAR-8 ovarian
[6] = tested on: RPMI-8226 leukemia
[7] = tested on: SF-268 CNS
[8] = tested on: SK-MEL-5 melanoma
[9] = tested on: T-47D breast
[10] = tested on: U251 CNS

SMILES	GI50 [1]	TGI [1]	GI50 [2]	TGI [2]	GI50 [3]	TGI [3]	GI50 [4]	TGI [4]	GI50 [5]	TGI [5]	GI50 [6]	TGI [6]	GI50 [7]	TGI [7]	GI50 [8]	TGI [8]	GI50 [9]	TGI [9]	GI50 [10]	TGI [10]
COc1ccc(-c2nsc3c2NC(=O)CC3c2ccc(F)cc2)cc1 (stereo unspecified)	598 nM	> 21.1 µM	3130 nM	> 100 µM	577 nM	> 100 µM	12700 nM	> 100 µM	5660 nM	> 100 µM	4940 nM	> 100 µM	10.2 µM	> 100 µM	3220 nM	> 100 µM	4640 nM	> 100 µM	4000 nM	> 100 µM
COC(=O)[C@H]1[C@@H](O)[C@@]2(O)c3c(OC)cc(O[C@@H]4O[C@@H]([C@H](O)CO)CO[C@H]4OC)cc3O[C@@]2(c2ccc(OC)cc2)[C@@H]1c1ccccc1	3.27 nM	0.0185 µM	3.29 nM	0.0333 µM	3.1 nM		5.06 nM	0.0484 µM	19.3 nM	0.136 µM	3.14 nM	0.0113 µM	0.00342 µM	0.0425 µM	6.62 nM	0.0494 µM	2.26 nM	0.0199 µM	3.52 nM	0.0202 µM
C#CCSc1n[nH]c(-c2ccco2)n1		> 100 µM		> 100 µM		> 100 µM		> 100 µM		> 100 µM		> 100 µM		> 100 µM		> 100 µM		> 100 µM		> 100 µM
NCCCCCCCCn1c2c(c3ccccc3c1=O)C(=O)c1ccccc1-2	2340 nM	6.23 µM	2120 nM	4.59 µM	1820 nM	3.53 µM	4340 nM	27.4 µM	3980 nM	> 100 µM	4020 nM	23.7 µM	6.44 µM	> 100 µM	1910 nM	3.94 µM	4970 nM	36.6 µM	13400 nM	35.9 µM
CC1=C(C(=O)Nc2ccccc2C)C(c2ccc(C3C(C(=O)Nc4ccccc4C)=C(C)NC(C)=C3C(=O)Nc3ccccc3C)cc2)C(C(=O)Nc2ccccc2C)=C(C)N1		6.15 µM		4.75 µM		9.28 µM		22.1 µM		8.57 µM		7.85 µM		7.18 µM		24.6 µM		20.5 µM		7.34 µM
COc1cc(-c2nc(NC(C)=O)sc2-c2ccnc(NCCNS(=O)(=O)c3ccccc3)n2)ccc1Cl	3140 nM	7.45 µM	3260 nM	59.3 µM	3170 nM	> 100 µM	3580 nM	> 100 µM	5210 nM	> 100 µM	3770 nM	> 100 µM	4.25 µM	> 100 µM	1580 nM	4.25 µM	2690 nM	> 100 µM	5220 nM	> 100 µM
CCc1c2c(nc3cc4c(c(N)c13)OCO4)-c1cc3c(c(=O)n1C2)COC(=O)[C@]3(O)CC	< 1 nM		133 nM and 57.8 nM	1.66 µM	< 1 nM		130 nM and 350 nM	> 100 µM		14.7 µM		0.317 µM and 2.77 µM		15.2 µM	< 1 nM	0.0222 µM and 0.101 µM	< 1 nM		< 1 nM	0.0326 µM and 0.174 µM
CNC(=O)c1c(NC(=O)c2ccc(C(F)(F)F)cc2)sc2c1CCC(=O)C2	363 nM	2.09 µM	668 nM	2.46 µM	470 nM	4.01 µM	604 nM	1.92 µM	466 nM	> 37.1 µM	272 nM	0.884 µM	0.995 µM	> 37.9 µM	1110 nM	2.58 µM	305 nM	2.38 µM	314 nM	2.06 µM
Cc1cccc(-c2nn3c(c2-c2ccnc4ccc(C(N)=O)cc24)CCC3)n1	> 100000 nM	> 100 µM	> 100000 nM	> 100 µM	> 100000 nM	> 100 µM	> 100000 nM	> 100 µM	> 100000 nM	> 100 µM	> 100000 nM	> 100 µM	> 100 µM	> 100 µM	> 100000 nM	> 100 µM	57600 nM	> 100 µM	> 100000 nM	> 100 µM
Cc1ncc(C(=O)Nc2ccc(CN3CCN(C)CC3)c(C(F)(F)F)c2)cc1C#Cc1cnc(N)c2cnccc12	38.3 nM	1.03 µM		11.2 µM	41.2 nM	4.98 µM	44.7 nM	4.25 µM	112 nM	16.3 µM	249 nM	2.13 µM	0.0791 µM	11.7 µM	80.5 nM	0.604 µM	317 nM	> 32.8 µM	86.4 nM	2.35 µM
CC1=CC(=O)CC(C)(C)C1(O)/C=C/C(C)=C/C(=O)O (stereo unspecified)		> 100 µM		> 100 µM		> 100 µM		> 100 µM		> 100 µM		> 100 µM		> 100 µM		> 100 µM		> 100 µM		> 100 µM
C/C1=C/C(=O)O[C@@H]2C[C@@H](CC[C@H](C)/C=C\C=C\CC1)O[C@@](O)([C@@H]1CSC(=O)N1CO)C2	253 nM	18.8 µM	4960 nM	24.3 µM	3420 nM	> 51.8 µM	176 nM	20.4 µM	1600 nM	74.6 µM	161 nM	23.1 µM	0.0418 µM	0.198 µM	222 nM	13.7 µM	59.3 nM	47.6 µM	99.2 nM	13.6 µM
COc1cc2c(c(OC)c1O)-c1ccc(OC)c(=O)cc1[C@@H](NC(=O)C(F)(F)F)CC2		2.55 µM		> 100 µM		> 100 µM		> 100 µM		> 100 µM		0.0699 µM		> 100 µM		0.0668 µM		> 100 µM		> 100 µM
Sc1ccc2ccccc2c1CNCc1ccccc1		26.9 µM		30.8 µM		6.59 µM		40.6 µM		65.8 µM		31.9 µM		30.3 µM		25.3 µM		> 100 µM		30.8 µM
C[C@H](N)C(=O)N[C@@H]1[C@H]2C(=C(O)C[C@@H](O)[C@@H]2O)C(=O)O[C@]1(C)C(Cl)Cl	254 nM and 149 nM		255 nM	1.99 µM and 1.52 µM	186 nM and 130 nM	3.79 µM and 0.564 µM	263 nM	3.03 µM and 0.841 µM	255 nM	3.12 µM and 1.18 µM	261 nM and 161 nM	2.57 µM and 2.35 µM	0.15 µM	2.8 µM and 2.59 µM	228 nM	0.994 µM and 0.471 µM	800 nM	7.69 µM and 4.18 µM	171 nM	3.08 µM and 2.29 µM
NC(=O)/C(=C\c1ccncc1)c1cccc2ccccc12		> 100 µM		> 100 µM		> 100 µM		> 100 µM		> 100 µM		> 100 µM		> 100 µM		> 100 µM		> 100 µM		> 100 µM
Fc1ccc(-c2nn3c(CNc4ccccc4)nnc3s2)cc1	> 100000 nM	> 100 µM	14900 nM	> 100 µM	27000 nM	> 100 µM	90700 nM	> 100 µM	34700 nM	> 100 µM	6990 nM	> 100 µM	64.3 µM	> 100 µM	17500 nM	36.7 µM	29600 nM	> 100 µM	23500 nM	> 100 µM
CO/[N+]([O-])=C\C(=O)N/C=C/C(=O)O		> 100 µM		> 100 µM		> 100 µM		> 100 µM		> 100 µM		> 100 µM		> 100 µM		> 100 µM		> 100 µM		> 100 µM
CN1CCC(CNc2ccc3ncc(-c4cccc(OC(F)(F)F)c4)n3n2)CC1	1540 nM and 1000 nM	3.79 µM and 2.89 µM	331 nM and 427 nM	1.78 µM and > 10 µM	2120 nM and 1450 nM	9.15 µM and 5.73 µM	2390 nM and 3810 nM	8.21 µM and > 10 µM	2460 nM and 2890 nM	8.2 µM and > 10 µM	2410 nM and 1910 nM	7.18 µM and 5.36 µM	1.57 µM and 3.2 µM	3.64 µM and > 10 µM	1470 nM and 1510 nM	2.82 µM and 2.85 µM	1440 nM and 1280 nM	3.01 µM and 3.56 µM	1600 nM and 1440 nM	3.23 µM and 2.97 µM
C[C@@H](N)C1CCC(C(=O)Nc2ccncc2)CC1 (stereo partly specified)	> 100000 nM	> 100 µM	> 100000 nM	> 100 µM	> 100000 nM	> 100 µM	> 100000 nM	> 100 µM	> 100000 nM	> 100 µM	> 100000 nM	> 100 µM	> 83 µM	> 100 µM	> 100000 nM	> 100 µM	> 100000 nM	> 100 µM	> 100000 nM	> 100 µM
Cc1ccc(S(=O)(=O)Oc2ccc([N+](=O)[O-])cc2[N+](=O)[O-])cc1	11400 nM	38.3 µM	6700 nM	20 µM	3820 nM	55.1 µM	7510 nM	20.4 µM	4240 nM	20.5 µM	2450 nM	7.84 µM	3.64 µM	15 µM	3260 nM	12.5 µM	15300 nM	45 µM	3830 nM	14.5 µM
